Measurements from patent publication US10577363B2, “Substituted piperidine compounds” (EPIZYME, INC., priority 2014, dated 2020).
pIC50: −log10 of the molar value.

Experiments:
SMYD3 [1] = biological target: T1, SMYD3 (Homo sapiens (Human), UniProt Q9H7B4); assay: SMYD3 biochemical assay (SPA, 3H-SAM methylation of MEKK2 protein substrate); settings: average of n = 1 to n = 50; read-out: SMYD3 Biochem IC50
Summary of the method: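 SPA methyltransferase format: tag-cleaved human SMYD3, insect-cell GST-MEKK2 protein substrate, 3H-SAM donor, 30 min RT enzyme–compound preincubation, 100 uM cold SAM quench.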

SMYD3 [2] = biological target: T1, SMYD3; assay: SMYD3 cell assay (Trimethyl-MEKK2 In-Cell Western in 293T/17 cells); assay type: cell-based; settings: average of n = 1 to n = 50; read-out: SMYD3 Cell IC50
Summary of the method: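 In-Cell Western readout: methanol-fixed cells stained for trimethyl-MEKK2 and flag tag, ratio per well normalized to DMSO and background controls.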

T1 sequence (Q9H7B4 whole entry): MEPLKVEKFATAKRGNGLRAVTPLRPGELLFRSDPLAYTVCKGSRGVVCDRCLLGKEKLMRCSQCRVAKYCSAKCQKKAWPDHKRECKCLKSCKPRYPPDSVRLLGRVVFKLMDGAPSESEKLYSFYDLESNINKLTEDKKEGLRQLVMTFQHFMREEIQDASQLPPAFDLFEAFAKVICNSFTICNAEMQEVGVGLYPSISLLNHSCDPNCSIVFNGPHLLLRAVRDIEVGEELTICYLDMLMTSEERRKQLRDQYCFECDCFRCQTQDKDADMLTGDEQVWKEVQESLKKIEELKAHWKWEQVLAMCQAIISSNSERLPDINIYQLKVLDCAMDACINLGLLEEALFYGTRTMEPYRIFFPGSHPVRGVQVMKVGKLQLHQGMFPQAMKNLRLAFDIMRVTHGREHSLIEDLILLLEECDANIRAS

| Compound | pIC50 (SMYD3 [1]) | pIC50 (SMYD3 [2]) |
| --- | --- | --- |
| CCC1CN(S(=O)(=O)N2[C@@H]3CC[C@H]2C[C@@H](NC(=O)c2cc(C4CC4)on2)C3)CCN1C (stereo partly drawn) [compound 713, 5-cyclopropyl-N-((1R,3r,5S)-8-((3-ethyl-4-methylpiperazin-1-yl)sulfonyl)-8-azabicyclo[3.2.1]octan-3-yl)isoxazole-3-carboxamide] | 6.53 | 5.93 |
| CN(C1CCNCC1)S(=O)(=O)N1CC[C@H](NC(=O)c2cc(C3CC3)on2)C[C@H]1Cc1ccccc1 [compound 715, N-((2R,4S)-2-benzyl-1-(N-methyl-N-(piperidin-4-yl)sulfamoyl)piperidin-4-yl)-5-cyclopropylisoxazole-3-carboxamide] | 6.53 | 5.52 |
| C[C@@H]1C[C@H](NC(=O)c2cc(C3CC3)on2)CCN1S(=O)(=O)CCC(N)Cc1ccccc1 (stereo partly drawn) [compound 716, N-((2R,4R)-1-((3-amino-4-phenylbutyl)sulfonyl)-2-methylpiperidin-4-yl)-5-cyclopropylisoxazole-3-carboxamide] | 6.52 | 5.45 |
| CN1CCC(N(C)S(=O)(=O)N2[C@@H]3CCC[C@H]2C[C@H](NC(=O)c2cc(C4CC4)on2)C3)CC1 [compound 718, 5-cyclopropyl-N-((1R,3s,5S)-9-(N-methyl-N-(1-methylpiperidin-4-yl)sulfamoyl)-9-azabicyclo[3.3.1]nonan-3-yl)isoxazole-3-carboxamide] | 6.51 | 5.79 |
| O=C(N[C@@H]1C[C@H]2CC[C@@H](C1)N2S(=O)(=O)CC1CCCNC1)c1cc(C2CC2)on1 (stereo partly drawn) [compound 721, 5-cyclopropyl-N-((1R,3s,5S)-8-((piperidin-3-ylmethyl)sulfonyl)-8-azabicyclo[3.2.1]octan-3-yl)isoxazole-3-carboxamide] | 6.49 | 5.74 |
| O=C(N[C@H]1C[C@H]2CC[C@@H](C1)N2S(=O)(=O)N1CCNC(c2ccccc2)C1)c1cc(C2CC2)on1 (stereo partly drawn) [compound 722, 5-cyclopropyl-N-((1R,3r,5S)-8-((3-phenylpiperazin-1-yl)sulfonyl)-8-azabicyclo[3.2.1]octan-3-yl)isoxazole-3-carboxamide] | 6.49 | 5.82 |
| CN(C1CCNCC1)S(=O)(=O)N1[C@@H]2CC[C@H]1C[C@H](NC(=O)c1cc(C3CC3)on1)C2 [compound 724, 5-cyclopropyl-N-((1R,3s,5S)-8-(N-methyl-N-(piperidin-4-yl)sulfamoyl)-8-azabicyclo[3.2.1]octan-3-yl)isoxazole-3-carboxamide] | 6.48 | 5.61 |
| O=C(N[C@H]1C[C@H]2CC[C@@H](C1)N2S(=O)(=O)CCN1CCC(OCc2ccccc2)C1)c1cc(C2CC2)on1 (stereo partly drawn) [compound 726, N-((1R,3r,5S)-8-((2-(3-(benzyloxy)pyrrolidin-1-yl)ethyl)sulfonyl)-8-azabicyclo[3.2.1]octan-3-yl)-5-cyclopropylisoxazole-3-carboxamide] | 6.44 | 5.61 |
| O=C(N[C@@H]1C[C@H]2CC[C@@H](C1)N2S(=O)(=O)C1CCCNC1)c1cc(C2CC2)on1 (stereo partly drawn) [compound 729, 5-cyclopropyl-N-((1R,3s,5S)-8-(piperidin-3-ylsulfonyl)-8-azabicyclo[3.2.1]octan-3-yl)isoxazole-3-carboxamide] | 6.39 | 5.60 |
| Nc1cc(S(=O)(=O)N2[C@@H]3CCC[C@H]2C[C@@H](NC(=O)c2cc(C4CC4)on2)C3)ccn1 [compound 730, N-((1R,3r,5S)-9-((2-aminopyridin-4-yl)sulfonyl)-9-azabicyclo[3.3.1]nonan-3-yl)-5-cyclopropylisoxazole-3-carboxamide] | 6.38 | 5.88 |
| O=C(NC1C[C@H]2CCC[C@H](C1)N2S(=O)(=O)c1ccc(Cl)cn1)c1cc(C2CC2)on1 (stereo partly drawn) [compound 733, N-((1R,5R)-9-((5-chloropyridin-2-yl)sulfonyl)-9-azabicyclo[3.3.1]nonan-3-yl)-5-cyclopropylisoxazole-3-carboxamide] | 6.35 | 5.71 |
| NCCCNc1ncccc1S(=O)(=O)N1[C@@H]2CCC[C@H]1C[C@@H](NC(=O)c1cc(C3CC3)on1)C2 [compound 734, N-((1R,3r,5S)-9-((2-((3-aminopropyl)amino)pyridin-3-yl)sulfonyl)-9-azabicyclo[3.3.1]nonan-3-yl)-5-cyclopropylisoxazole-3-carboxamide] | 6.35 | 5.38 |

The remaining lines, values ahead:

| pIC50 (SMYD3 [1]) | pIC50 (SMYD3 [2]) | Compound |
| --- | --- | --- |
| 6.58 | 6.08 | C[C@H]1CN(S(=O)(=O)N2CCN(C)CC2)CC[C@H]1NC(=O)c1cc(C2CC2)on1 [compound 710, 5-cyclopropyl-N-((3S,4R)-3-methyl-1-((4-methylpiperazin-1-yl)sulfonyl)piperidin-4-yl)isoxazole-3-carboxamide] |
| 6.56 | 5.94 | CC[C@@H]1CN(S(=O)(=O)N2CC[C@H](NC(=O)c3cc(C4CC4)on3)C[C@@H]2C)CCN1C [compound 711, 5-cyclopropyl-N-((2S,4S)-1-(((R)-3-ethyl-4-methylpiperazin-1-yl)sulfonyl)-2-methylpiperidin-4-yl)isoxazole-3-carboxamide] |
| 6.56 | 5.96 | C[C@@H]1CN(S(=O)(=O)N2CC[C@H](NC(=O)c3cc(C4CC4)on3)C[C@@H]2C)[C@@H](C)CN1C [compound 712, 5-cyclopropyl-N-((2S,4S)-2-methyl-1-(((2S,5R)-2,4,5-trimethylpiperazin-1-yl)sulfonyl)piperidin-4-yl)isoxazole-3-carboxamide] |
| 6.53 | 5.50 | CN(C1CCNCC1)S(=O)(=O)N1CC[C@@H](NC(=O)c2cc(C3CC3)on2)C[C@@H]1Cc1ccccc1 [compound 714, N-((2S,4R)-2-benzyl-1-(N-methyl-N-(piperidin-4-yl)sulfamoyl)piperidin-4-yl)-5-cyclopropylisoxazole-3-carboxamide] |
| 6.51 | 5.69 | O=C(N[C@H]1CCN(S(=O)(=O)C2CCNC2)[C@@H](Cc2ccccc2)C1)c1cc(C2CC2)on1 (stereo partly drawn) [compound 717, N-((2S,4S)-2-benzyl-1-(pyrrolidin-3-ylsulfonyl)piperidin-4-yl)-5-cyclopropylisoxazole-3-carboxamide] |
| 6.49 | 5.92 | C[C@H]1CN(S(=O)(=O)N(C)C2CCN(Cc3ccccc3)CC2)CC[C@H]1NC(=O)c1cc(C2CC2)on1 [compound 719, N-((3S,4R)-1-(N-(1-benzylpiperidin-4-yl)-N-methylsulfamoyl)-3-methylpiperidin-4-yl)-5-cyclopropylisoxazole-3-carboxamide] |
| 6.49 | 5.61 | COCCN1CCC(CS(=O)(=O)N2CC[C@H](NC(=O)c3cc(C4CC4)on3)C[C@@H]2Cc2ccccc2)CC1 [compound 720, N-((2S,4S)-2-benzyl-1-(((1-(2-methoxyethyl)piperidin-4-yl)methyl)sulfonyl)piperidin-4-yl)-5-cyclopropylisoxazole-3-carboxamide] |
| 6.49 | 5.56 | O=C(N[C@@H]1CCN(S(=O)(=O)CC2CCNCC2)[C@@H](Cc2ccccc2)C1)c1cc(C2CC2)on1 [compound 723, N-((2S,4R)-2-benzyl-1-((piperidin-4-ylmethyl)sulfonyl)piperidin-4-yl)-5-cyclopropylisoxazole-3-carboxamide] |
| 6.47 | 5.51 | O=C(N[C@H]1CCN(S(=O)(=O)C2CCCNC2)[C@@H](Cc2ccccc2)C1)c1cc(C2CC2)on1 (stereo partly drawn) [compound 725, N-((2S,4S)-2-benzyl-1-(piperidin-3-ylsulfonyl)piperidin-4-yl)-5-cyclopropylisoxazole-3-carboxamide] |
| 6.44 | 5.86 | CNC/C=C/S(=O)(=O)N1CCC(NC(=O)c2cc(C3CC3)on2)CC1 [compound 727, (E)-5-cyclopropyl-N-(1-((3-(methylamino)prop-1-en-1-yl)sulfonyl)piperidin-4-yl)isoxazole-3-carboxamide] |
| 6.42 | 5.86 | CC(C)[C@@H]1CN(S(=O)(=O)N2CC[C@H](NC(=O)c3cc(C4CC4)on3)C[C@@H]2C)CCN1C [compound 728, 5-cyclopropyl-N-((2S,4S)-1-(((R)-3-isopropyl-4-methylpiperazin-1-yl)sulfonyl)-2-methylpiperidin-4-yl)isoxazole-3-carboxamide] |
| 6.38 | 5.88 | C[C@H]1CN(S(=O)(=O)N2CCN(C)CC2)[C@@H](C)C[C@H]1NC(=O)c1cc(C2CC2)on1 [compound 731, 5-cyclopropyl-N-((2S,4R,5S)-2,5-dimethyl-1-((4-methylpiperazin-1-yl)sulfonyl)piperidin-4-yl)isoxazole-3-carboxamide] |
| 6.37 | 5.84 | C[C@H]1CN(S(=O)(=O)CCN2CCCC2)[C@@H](C)C[C@H]1NC(=O)c1cc(C2CC2)on1 [compound 732, 5-cyclopropyl-N-((2S,4R,5S)-2,5-dimethyl-1-((2-(pyrrolidin-1-yl)ethyl)sulfonyl)piperidin-4-yl)isoxazole-3-carboxamide] |
| 6.35 | 5.87 | C[C@H]1CN(S(=O)(=O)N2CC[C@H](NC(=O)c3cc(C4CC4)on3)C[C@@H]2C)CCN1C [compound 735, 5-cyclopropyl-N-((2S,4S)-1-(((S)-3,4-dimethylpiperazin-1-yl)sulfonyl)-2-methylpiperidin-4-yl)isoxazole-3-carboxamide] |
| 6.34 | 5.69 | C[C@H]1C[C@@H](NC(=O)c2cc(C3CC3)on2)CCN1S(=O)(=O)N1CCNC(Cc2ccccc2)C1 (stereo partly drawn) [compound 736, N-((2S,4S)-1-((3-benzylpiperazin-1-yl)sulfonyl)-2-methylpiperidin-4-yl)-5-cyclopropylisoxazole-3-carboxamide] |
